Experimental findings from BindingDB's records for doi:10.1016/j.ejmech.2019.111574 (Chungnam National University, 2019) are described below.

pIC50: −log10 of the molar value. Some results are limits rather than exact numbers.

The pIC50 is the negative decadic logarithm of the IC50, by convention in mol/L.

The assay is described as follows: Inhibition of IL-5 receptor in mouse pro-B Y16 cells assessed as decrease in mIL-5 dependent cell proliferation after 48 hrs in presence of 3 units/ml mIL-5 by WST-1 assay.
For `CCCC(CO)NCc1nc2c(OCC3CCCCC3)cccc2[nH]1` (configuration not stated), the negative logarithm of the IC50 (pIC50) was 5.12.

Take `c1ccc(NCc2nc3c(OCC4CCCCC4)cccc3[nH]2)cc1`: the pIC50 is below 4.52.

In the case of `CN(CCO)Cc1nc2c(OCC3CCCCC3)cccc2[nH]1`, the negative logarithm of the IC50 (pIC50) was below 4.52.

Regarding `OCC(Cc1ccccc1)NCc1nc2c(OCC3CCCCC3)cccc2[nH]1` (configuration not stated), the pIC50 was 4.92.

With `OCCCCNCc1nc2c(OCC3CCCCC3)cccc2[nH]1`, the pIC50 was 4.52.

`CCCC1O[C@@H]2C[C@H]3[C@@H]4CCC5=CC(=O)C=C[C@]5(C)[C@H]4[C@@H](O)C[C@]3(C)[C@]2(C(=O)CO)O1` (some centres not stated) [BUDESONIDE]: the pIC50 was 4.58.

In the case of `CCCN(CCO)Cc1nc2c(OCC3CCCCC3)cccc2[nH]1`, the pIC50 is 4.70.

As for `COc1ccc(CN(CCO)Cc2nc3c(OCC4CCCCC4)cccc3[nH]2)cc1`, the pIC50 was 4.72.

As to `CCN(CCO)Cc1nc2c(OCC3CCCCC3)cccc2[nH]1`, the pIC50 was below 4.52.

Turning to `COc1ccc(CNCc2nc3c(OCC4CCCCC4)cccc3[nH]2)cc1`, the pIC50 is below 4.52.

Take `OCCNCc1nc2c(OCC3CCCCC3)cccc2[nH]1`: the pIC50 is 4.70.

Turning to `CCC(CO)NCc1nc2c(OCC3CCCCC3)cccc2[nH]1` (configuration not stated), the negative logarithm of the IC50 (pIC50) was 5.46.

On to `OCCCNCc1nc2c(OCC3CCCCC3)cccc2[nH]1`, for which the pIC50 was 4.55.

Take `OCCN(Cc1ccncc1)Cc1nc2c(OCC3CCCCC3)cccc2[nH]1`: the negative logarithm of the IC50 (pIC50) is below 4.52.

Regarding `OCCN(Cc1nc2c(OCC3CCCCC3)cccc2[nH]1)CC1CCCCC1`, the pIC50 is 4.68.

For the molecule `CC(C)(CO)NCc1nc2c(OCC3CCCCC3)cccc2[nH]1`, the pIC50 is 4.56.

With `O=c1c(-c2ccc(O[C@@H]3O[C@H](CO)[C@@H](O)[C@H](O)[C@H]3O)cc2)coc2cc(O)cc(O)c12` [Sophoricoside], the pIC50 was 4.97.

In the case of `OCCN(Cc1ccc(Cl)cc1)Cc1nc2c(OCC3CCCCC3)cccc2[nH]1`, the pIC50 is 4.89.

With `CC(C)N(CCO)Cc1nc2c(OCC3CCCCC3)cccc2[nH]1`, the negative logarithm of the IC50 (pIC50) was below 4.52.

In the case of `c1ccc(CNCc2nc3c(OCC4CCCCC4)cccc3[nH]2)cc1`, the pIC50 was below 4.52.

With `OCCC(NCc1nc2c(OCC3CCCCC3)cccc2[nH]1)c1ccccc1` (configuration not stated), the pIC50 is 4.66.

Take `OCC(CC1CCCCC1)NCc1nc2c(OCC3CCCCC3)cccc2[nH]1` (configuration not stated): the pIC50 is 5.30.

With `OCC(NCc1nc2c(OCC3CCCCC3)cccc2[nH]1)c1ccccc1` (configuration not stated), the negative logarithm of the IC50 (pIC50) was 4.70.

On to `OCCN(Cc1nc2c(OCC3CCCCC3)cccc2[nH]1)C1CCCCC1`, for which the negative logarithm of the IC50 (pIC50) is below 4.52.

Turning to `OCCN(Cc1ccccc1)Cc1nc2c(OCC3CCCCC3)cccc2[nH]1`, the pIC50 was 4.60.

With `OCCCCCNCc1nc2c(OCC3CCCCC3)cccc2[nH]1`, the pIC50 was below 4.52.

Turning to `COc1ccc(NCc2nc3c(OCC4CCCCC4)cccc3[nH]2)cc1`, the negative-log IC50 (pIC50) was below 4.52.
